Data published in patent US11013817B2, “Nanoparticles for drug delivery to treat bone disease” (The Cleveland Clinic Foundation, priority 2016, dated 2021).

Experiment: Solid state solubility of PTX and TXT in polymers (phase separation in cast films)
Format: physicochemical
Set-up: key: +ve: Phase separation; −ve: No phase separation
Description: For this example, polymer and drug solutions in chloroform at different % of drug to polymer were casted into films on glass slides. Following solvent evaporation of chloroform in a chemical hood overnight, the casted films were observed under a light microscope. Phase separation was clearly evident from crystallization of the drug in the polymer film whereas the films were homogeneous when there was no phase separation.

Phase Separation (drug 1% w/w, polymer inherent viscosity 0.16 dL/g, Lactide/Glycolide 50/50): + | Phase Separation (drug 1% w/w, polymer inherent viscosity 0.18 dL/g, Lactide/Glycolide 75/25): + | Phase Separation (drug 1% w/w, polymer inherent viscosity 0.26-0.54 dL/g, Lactide/Glycolide 50/50, Ester Terminated): − | Phase Separation (drug 1% w/w, polymer inherent viscosity 0.39 dL/g, Lactide/Glycolide 50/50): + | Phase Separation (drug 1% w/w, polymer inherent viscosity 0.55-0.75 dL/g, Lactide/Glycolide 50/50, Carbohydrate end Group): − | Phase Separation (drug 1% w/w, polymer inherent viscosity 0.63 dL/g, Lactide/Glycolide 85/15): + | Phase Separation (drug 1% w/w, polymer inherent viscosity 0.64 dL/g, Lactide/Glycolide 65/35): + | Phase Separation (drug 1% w/w, polymer inherent viscosity 0.64 dL/g, Lactide/Glycolide 75/25): + | Phase Separation (drug 1% w/w, polymer inherent viscosity 0.67 dL/g, Lactide/Glycolide 65/35): + | Phase Separation (drug 1% w/w, polymer inherent viscosity 0.69 dL/g, Lactide/Glycolide 50/50 (first of two such lines, r12)): + | Phase Separation (drug 1% w/w, polymer inherent viscosity 0.69 dL/g, Lactide/Glycolide 50/50 (second of two such lines, r13)): + | Phase Separation (drug 1% w/w, polymer inherent viscosity 0.76-0.94 dL/g, Lactide/Glycolide 50/50): + | Phase Separation (drug 1% w/w, polymer inherent viscosity 0.87 dL/g, Lactide/Glycolide 50/50): + | Phase Separation (drug 1% w/w, polymer inherent viscosity 0.95-1.20 dL/g, Lactide/Glycolide 50/50): − | Phase Separation (drug 1% w/w, polymer inherent viscosity 1.15 dL/g, Lactide/Glycolide 50/50): + | Phase Separation (drug 1% w/w, polymer inherent viscosity 1.24 dL/g, Lactide/Glycolide 50/50): + | Phase Separation (drug 5% w/w, polymer inherent viscosity 0.16 dL/g, Lactide/Glycolide 50/50): + | Phase Separation (drug 5% w/w, polymer inherent viscosity 0.18 dL/g, Lactide/Glycolide 75/25): + | Phase Separation (drug 5% w/w, polymer inherent viscosity 0.26-0.54 dL/g, Lactide/Glycolide 50/50, Ester Terminated): − | Phase Separation (drug 5% w/w, polymer inherent viscosity 0.39 dL/g, Lactide/Glycolide 50/50): + | Phase Separation (drug 5% w/w, polymer inherent viscosity 0.55-0.75 dL/g, Lactide/Glycolide 50/50, Carbohydrate end Group): − | Phase Separation (drug 5% w/w, polymer inherent viscosity 0.63 dL/g, Lactide/Glycolide 85/15): + | Phase Separation (drug 5% w/w, polymer inherent viscosity 0.64 dL/g, Lactide/Glycolide 65/35): + | Phase Separation (drug 5% w/w, polymer inherent viscosity 0.64 dL/g, Lactide/Glycolide 75/25): + | Phase Separation (drug 5% w/w, polymer inherent viscosity 0.67 dL/g, Lactide/Glycolide 65/35): + | Phase Separation (drug 5% w/w, polymer inherent viscosity 0.69 dL/g, Lactide/Glycolide 50/50 (first of two such lines, r12)): + | Phase Separation (drug 5% w/w, polymer inherent viscosity 0.69 dL/g, Lactide/Glycolide 50/50 (second of two such lines, r13)): + | Phase Separation (drug 5% w/w, polymer inherent viscosity 0.76-0.94 dL/g, Lactide/Glycolide 50/50): + | Phase Separation (drug 5% w/w, polymer inherent viscosity 0.87 dL/g, Lactide/Glycolide 50/50): + | Phase Separation (drug 5% w/w, polymer inherent viscosity 0.95-1.20 dL/g, Lactide/Glycolide 50/50): − | Phase Separation (drug 5% w/w, polymer inherent viscosity 1.15 dL/g, Lactide/Glycolide 50/50): + | Phase Separation (drug 5% w/w, polymer inherent viscosity 1.24 dL/g, Lactide/Glycolide 50/50): + | Phase Separation (drug 10% w/w, polymer inherent viscosity 0.16 dL/g, Lactide/Glycolide 50/50): + | Phase Separation (drug 10% w/w, polymer inherent viscosity 0.18 dL/g, Lactide/Glycolide 75/25): + | Phase Separation (drug 10% w/w, polymer inherent viscosity 0.26-0.54 dL/g, Lactide/Glycolide 50/50, Ester Terminated): − | Phase Separation (drug 10% w/w, polymer inherent viscosity 0.39 dL/g, Lactide/Glycolide 50/50): + | Phase Separation (drug 10% w/w, polymer inherent viscosity 0.55-0.75 dL/g, Lactide/Glycolide 50/50, Carbohydrate end Group): − | Phase Separation (drug 10% w/w, polymer inherent viscosity 0.63 dL/g, Lactide/Glycolide 85/15): + | Phase Separation (drug 10% w/w, polymer inherent viscosity 0.64 dL/g, Lactide/Glycolide 65/35): + | Phase Separation (drug 10% w/w, polymer inherent viscosity 0.64 dL/g, Lactide/Glycolide 75/25): + | Phase Separation (drug 10% w/w, polymer inherent viscosity 0.67 dL/g, Lactide/Glycolide 65/35): + | Phase Separation (drug 10% w/w, polymer inherent viscosity 0.69 dL/g, Lactide/Glycolide 50/50 (first of two such lines, r12)): + | Phase Separation (drug 10% w/w, polymer inherent viscosity 0.69 dL/g, Lactide/Glycolide 50/50 (second of two such lines, r13)): + | Phase Separation (drug 10% w/w, polymer inherent viscosity 0.76-0.94 dL/g, Lactide/Glycolide 50/50): + | Phase Separation (drug 10% w/w, polymer inherent viscosity 0.87 dL/g, Lactide/Glycolide 50/50): + | Phase Separation (drug 10% w/w, polymer inherent viscosity 0.95-1.20 dL/g, Lactide/Glycolide 50/50): − | Phase Separation (drug 10% w/w, polymer inherent viscosity 1.15 dL/g, Lactide/Glycolide 50/50): + | Phase Separation (drug 10% w/w, polymer inherent viscosity 1.24 dL/g, Lactide/Glycolide 50/50): + | Phase Separation (drug 15% w/w, polymer inherent viscosity 0.16 dL/g, Lactide/Glycolide 50/50): + | Phase Separation (drug 15% w/w, polymer inherent viscosity 0.18 dL/g, Lactide/Glycolide 75/25): + | Phase Separation (drug 15% w/w, polymer inherent viscosity 0.26-0.54 dL/g, Lactide/Glycolide 50/50, Ester Terminated): − | Phase Separation (drug 15% w/w, polymer inherent viscosity 0.39 dL/g, Lactide/Glycolide 50/50): + | Phase Separation (drug 15% w/w, polymer inherent viscosity 0.55-0.75 dL/g, Lactide/Glycolide 50/50, Carbohydrate end Group): − | Phase Separation (drug 15% w/w, polymer inherent viscosity 0.63 dL/g, Lactide/Glycolide 85/15): + | Phase Separation (drug 15% w/w, polymer inherent viscosity 0.64 dL/g, Lactide/Glycolide 65/35): + | Phase Separation (drug 15% w/w, polymer inherent viscosity 0.64 dL/g, Lactide/Glycolide 75/25): + | Phase Separation (drug 15% w/w, polymer inherent viscosity 0.67 dL/g, Lactide/Glycolide 65/35): + | Phase Separation (drug 15% w/w, polymer inherent viscosity 0.69 dL/g, Lactide/Glycolide 50/50 (first of two such lines, r12)): + | Phase Separation (drug 15% w/w, polymer inherent viscosity 0.69 dL/g, Lactide/Glycolide 50/50 (second of two such lines, r13)): + | Phase Separation (drug 15% w/w, polymer inherent viscosity 0.76-0.94 dL/g, Lactide/Glycolide 50/50): + | Phase Separation (drug 15% w/w, polymer inherent viscosity 0.87 dL/g, Lactide/Glycolide 50/50): + | Phase Separation (drug 15% w/w, polymer inherent viscosity 0.95-1.20 dL/g, Lactide/Glycolide 50/50): − | Phase Separation (drug 15% w/w, polymer inherent viscosity 1.15 dL/g, Lactide/Glycolide 50/50): + | Phase Separation (drug 15% w/w, polymer inherent viscosity 1.24 dL/g, Lactide/Glycolide 50/50): + | Phase Separation (drug 20% w/w, polymer inherent viscosity 0.16 dL/g, Lactide/Glycolide 50/50): + | Phase Separation (drug 20% w/w, polymer inherent viscosity 0.18 dL/g, Lactide/Glycolide 75/25): + | Phase Separation (drug 20% w/w, polymer inherent viscosity 0.26-0.54 dL/g, Lactide/Glycolide 50/50, Ester Terminated): − | Phase Separation (drug 20% w/w, polymer inherent viscosity 0.39 dL/g, Lactide/Glycolide 50/50): + | Phase Separation (drug 20% w/w, polymer inherent viscosity 0.55-0.75 dL/g, Lactide/Glycolide 50/50, Carbohydrate end Group): − | Phase Separation (drug 20% w/w, polymer inherent viscosity 0.63 dL/g, Lactide/Glycolide 85/15): + | Phase Separation (drug 20% w/w, polymer inherent viscosity 0.64 dL/g, Lactide/Glycolide 65/35): + | Phase Separation (drug 20% w/w, polymer inherent viscosity 0.64 dL/g, Lactide/Glycolide 75/25): + | Phase Separation (drug 20% w/w, polymer inherent viscosity 0.67 dL/g, Lactide/Glycolide 65/35): + | Phase Separation (drug 20% w/w, polymer inherent viscosity 0.69 dL/g, Lactide/Glycolide 50/50 (first of two such lines, r12)): + | Phase Separation (drug 20% w/w, polymer inherent viscosity 0.69 dL/g, Lactide/Glycolide 50/50 (second of two such lines, r13)): + | Phase Separation (drug 20% w/w, polymer inherent viscosity 0.76-0.94 dL/g, Lactide/Glycolide 50/50): + | Phase Separation (drug 20% w/w, polymer inherent viscosity 0.87 dL/g, Lactide/Glycolide 50/50): + | Phase Separation (drug 20% w/w, polymer inherent viscosity 0.95-1.20 dL/g, Lactide/Glycolide 50/50): + | Phase Separation (drug 20% w/w, polymer inherent viscosity 1.15 dL/g, Lactide/Glycolide 50/50): + | Phase Separation (drug 20% w/w, polymer inherent viscosity 1.24 dL/g, Lactide/Glycolide 50/50): +
Compound: CC(=O)O[C@H]1C(=O)[C@@]2(C)[C@H]([C@H](OC(=O)c3ccccc3)[C@]3(O)C[C@H](OC(=O)[C@H](O)[C@@H](NC(=O)c4ccccc4)c4ccccc4)C(C)=C1C3(C)C)[C@]1(OC(C)=O)CO[C@@H]1C[C@@H]2O [Paclitaxel, 5ß,20-Epoxy-1,2a,4,7ß,10ß,13a-hexahydroxytax-11-en-9-one 4,10-diacetate 2-benzoate 13-ester with (2R,3S)-N-benzoyl-3-phenylisoserine]
